Where “and” joins values, the source holds several entries; their conditions need not be identical. Equal entries are not always repeated. Inconclusive results and toxic doses are left out. How the source made its calls: active means survival T/C of 150% or more; inactive means T/C below 125% in these data. Peptide text beside a SMILES is read from it.
System: P388 leukemia ip, CD2F1 mice, survival T/C
Assay: NCI In Vivo Anticancer Drug Screen. Data for tumor model P388 Leukemia (intraperitoneal) in CD2F1 (CDF1) mice
Conditions: endpoint: median survival time, higher = longer survival
Outline: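 Mice carrying the transplanted tumor received test compound or vehicle. Survival was recorded in each group, and the value is the treated-group measurement divided by that of the vehicle-treated control group.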

[1] = dose: 25.0 mg/kg/injection, schedule: Q01DX009 (ip), vehicle: saline with Tween-80
[2] = dose: 50.0 mg/kg/injection, schedule: Q01DX009 (ip), vehicle: saline with Tween-80
[3] = dose: 100.0 mg/kg/injection, schedule: Q01DX009 (ip), vehicle: saline with Tween-80
[4] = dose: 200.0 mg/kg/injection, schedule: Q01DX009 (ip), vehicle: saline with Tween-80
[5] = dose: 50.0 mg/kg/injection, schedule: Q01DX005 (ip), vehicle: Klucel (hydroxypropylcellulose) (HPC)
[6] = dose: 100.0 mg/kg/injection, schedule: Q01DX005 (ip), vehicle: Klucel (hydroxypropylcellulose) (HPC)
[7] = dose: 200.0 mg/kg/injection, schedule: Q01DX005 (ip), vehicle: Klucel (hydroxypropylcellulose) (HPC)
[8] = dose: 100.0 mg/kg/injection, schedule: Q01DX001 (ip), vehicle: Klucel (hydroxypropylcellulose) (HPC)
[9] = dose: 200.0 mg/kg/injection, schedule: Q01DX001 (ip), vehicle: Klucel (hydroxypropylcellulose) (HPC)
[10] = dose: 400.0 mg/kg/injection, schedule: Q01DX001 (ip), vehicle: Klucel (hydroxypropylcellulose) (HPC)
[11] = dose: 50.0 mg/kg/injection, schedule: Q01DX005 (ip), vehicle: saline
[12] = dose: 200.0 mg/kg/injection, schedule: Q01DX005 (ip), vehicle: saline
[13] = dose: 12.5 mg/kg/injection, schedule: Q01DX005 (ip), vehicle: Klucel (hydroxypropylcellulose) (HPC)
[14] = dose: 25.0 mg/kg/injection, schedule: Q01DX005 (ip), vehicle: Klucel (hydroxypropylcellulose) (HPC)

Measured: T/C

Nc1ccccc1SCc1ccccc1
inactive: [1] 103 % of control | [2] 100 % of control | [3] 102 % of control | [4] 108 % of control

Cc1cccc(-n2c(C)nc3[nH]cc(C)c3c2=N)c1
inactive: [5] 99 % of control | [6] 105 % of control

Cc1c2noc1CCCCCCCCCCC2
inactive: [5] 104 % of control | [6] 110 % of control | [7] 102 % of control

COC(=O)C(O)c1ccc2c(c1)OCO2 (stereo unspecified)
inactive: [3] 90 % of control | [4] 90 % of control | dose: 400.0 mg/kg/injection, schedule: Q01DX009 (ip), vehicle: saline with Tween-80 104 % of control

O=C1C2CCC(N1CCc1ccccc1)n1c(=O)n(-c3ccccc3)c(=O)n12 (stereo unspecified)
inactive: [8] 99 % of control | [9] 104 % of control | [10] 97 % of control

Nc1ncc2c(n1)Oc1cc3nc4c(=O)nc(N)nc-4oc3cc1N2
inactive: [5] 91 % of control | [6] 93 % of control

CCOC(=O)c1ccc(N(CCNc2cnc(NC(C)=O)[nH]c2=O)C(C)=O)cc1
inactive: [1] 92 % of control | [2] 88 % of control | [3] 92 % of control | [4] 89 % of control

CC(C)(OC(=O)N=[N+]=[N-])c1ccc(N=Nc2ccccc2)cc1
inactive: dose: 50.0 mg/kg/injection, schedule: Q01DX009 (ip), vehicle: saline + alcohol 94 % of control | dose: 100.0 mg/kg/injection, schedule: Q01DX009 (ip), vehicle: saline + alcohol 98 % of control | dose: 200.0 mg/kg/injection, schedule: Q01DX009 (ip), vehicle: saline + alcohol 87 % of control

O=C(O)O
inactive: dose: 25.0 mg/kg/injection, schedule: Q01DX009 (ip), vehicle: saline 102 % of control | dose: 50.0 mg/kg/injection, schedule: Q01DX009 (ip), vehicle: saline 94 % of control and 93 % of control | [3] 100 % of control | dose: 100.0 mg/kg/injection, schedule: Q01DX009 (ip), vehicle: saline 99 % of control and 95 % of control | [4] 95 % of control | dose: 200.0 mg/kg/injection, schedule: Q01DX009 (ip), vehicle: saline 98 % of control and 102 % of control | dose: 200.0 mg/kg/injection, schedule: Q04DX003 (ip), vehicle: saline sonified 100 % of control | dose: 0.25 % in 0.5 ml injection vol, schedule: Q01DX009 (ip), vehicle: water 98 % of control | dose: 400.0 mg/kg/injection, schedule: Q04DX003 (ip), vehicle: saline sonified 100 % of control | dose: 0.5 % in 0.5 ml injection vol, schedule: Q01DX009 (ip), vehicle: water 100 % of control | dose: 1.0 % in 0.5 ml injection vol, schedule: Q01DX009 (ip), vehicle: water 102 % of control | dose: 4.0 % in 0.5 ml injection vol, schedule: Q01DX009 (ip), vehicle: water 100 % of control and 102 % of control | dose: 8.0 % in 0.5 ml injection vol, schedule: Q01DX009 (ip), vehicle: water 99 % of control and 95 % of control

COC(C(=O)C1=C2Oc3c4c(cc(O)c3C(=O)C2C2=C(CCCC2)C1=O)OC(C)(C)C=C4)C(C)CCC=C(C)C (stereo unspecified)
inactive: [11] 112 % of control | [12] 90 % of control

COc1cc2c(cc1C(C)c1ccc(Cl)cc1)OCO2 (stereo unspecified)
inactive: dose: 50.0 mg/kg/injection, schedule: Q01DX005 (ip), vehicle: saline with Tween-80 99 % of control | dose: 100.0 mg/kg/injection, schedule: Q01DX005 (ip), vehicle: saline with Tween-80 108 % of control | dose: 200.0 mg/kg/injection, schedule: Q01DX005 (ip), vehicle: saline with Tween-80 101 % of control

O=C(O)CCCCCCCCCCC1C=CCC1 (stereo unspecified)
inactive: dose: 100.0 mg/kg/injection, schedule: Q04DX003 (ip), vehicle: saline 93 % of control | dose: 200.0 mg/kg/injection, schedule: Q04DX003 (ip), vehicle: saline 93 % of control | dose: 400.0 mg/kg/injection, schedule: Q04DX003 (ip), vehicle: saline 93 % of control

CCCCCCCCOc1cc2cc(O)oc3cc(=O)cc(o1)c23
inactive: dose: 60.0 mg/kg/injection, schedule: Q01DX005 (ip), vehicle: saline 108 % of control | dose: 120.0 mg/kg/injection, schedule: Q01DX005 (ip), vehicle: saline 122 % of control

COc1cc(NN=C(C#N)C#N)c(OC)cc1Cl
inactive: dose: 6.25 mg/kg/injection, schedule: Q01DX005 (ip), vehicle: Klucel (hydroxypropylcellulose) (HPC) 102 % of control | [13] 107 % of control | [14] 107 % of control

S=P12OCCC(CO1)O2 (stereo unspecified)
inactive: dose: 100.0 mg/kg/injection, schedule: Q04DX003 (ip), vehicle: Klucel (hydroxypropylcellulose) (HPC) 100 % of control | dose: 200.0 mg/kg/injection, schedule: Q04DX003 (ip), vehicle: Klucel (hydroxypropylcellulose) (HPC) 97 % of control | dose: 400.0 mg/kg/injection, schedule: Q04DX003 (ip), vehicle: Klucel (hydroxypropylcellulose) (HPC) 97 % of control

CN=NNc1ccc(C#N)cc1
inactive: [8] 98 % of control | [9] 98 % of control | [10] 95 % of control

CCOC(=O)C1OC(C2(C)OC3(OC4(C=CC3O)OC(C(C)C(=O)C(C)C(O)C(C)CC(C)c3c(Cl)cc(C)c(O)c3C(=O)O)C(C)CC4C)C(C)C2OC)CC1O (stereo unspecified)
inactive: dose: 1.25 mg/kg/injection, schedule: Q01DX005 (ip), vehicle: Klucel (hydroxypropylcellulose) (HPC) 107 % of control | dose: 2.5 mg/kg/injection, schedule: Q01DX005 (ip), vehicle: Klucel (hydroxypropylcellulose) (HPC) 100 % of control

COc1cc2c3c(c1O)-c1c(cccc1OC)CC3N(C)CC2 (stereo unspecified)
inactive: dose: 12.5 mg/kg/injection, schedule: Q04DX003 (ip), vehicle: saline with Tween-80 90 % of control | dose: 25.0 mg/kg/injection, schedule: Q04DX003 (ip), vehicle: saline with Tween-80 100 % of control and 88 % of control

COC(=O)N1c2ccccc2C=C(NC(C)=O)C1C#N (stereo unspecified)
inactive: dose: 100.0 mg/kg/injection, schedule: Q04DX003 (ip), vehicle: saline with Tween-80 90 % of control | dose: 200.0 mg/kg/injection, schedule: Q04DX003 (ip), vehicle: saline with Tween-80 100 % of control | dose: 400.0 mg/kg/injection, schedule: Q04DX003 (ip), vehicle: saline with Tween-80 100 % of control

CCCC[NH-].CCCC[NH-].[I][Pt+2][I]
inactive: dose: 0.78 mg/kg/injection, schedule: Q01DX009 (ip), vehicle: other 103 % of control and 120 % of control

NC(N)=NCCCC(N)C(=O)N1CCCC1C(=O)O (stereo not drawn) (H-Arg-Pro-OH; configuration not given here)
inactive: [11] 101 % of control | dose: 100.0 mg/kg/injection, schedule: Q01DX005 (ip), vehicle: saline 97 % of control | [12] 100 % of control

C=C1CC2(CCCC(=O)C2)OC1=O (stereo unspecified)
inactive: [13] 97 % of control | [14] 101 % of control | [5] 99 % of control and 101 % of control

O=C1[C@@H]2[C@H](C(=O)N1c1ccccc1)[C@H]1CC[C@H]2N1C(=O)c1ccccc1
inactive: dose: 60.0 mg/kg/injection, schedule: Q01DX005 (ip), vehicle: saline with Tween-80 96 % of control | dose: 120.0 mg/kg/injection, schedule: Q01DX005 (ip), vehicle: saline with Tween-80 100 % of control | dose: 240.0 mg/kg/injection, schedule: Q01DX005 (ip), vehicle: saline with Tween-80 88 % of control

CC1=C(C(C)(C)C)C(=O)c2ccccc2C1=O
inactive: [5] 100 % of control | [6] 103 % of control | [7] 107 % of control

Reference: PubChem BioAssay AID330 (DTP/NCI, 2004)
